The results in this text go back to PubChem BioAssay (NCI).

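Test compounds were applied to cells in 96-well plates for 48 hours at 5 doses. At the TGI there is no net growth.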

Common to all, as to assay: inhibition of tumour cell growth, NCI panel, 48 h
For assay [1], the system named is SK-MEL-5 melanoma.
For assay [2], the system named is T-47D breast.
Assay [3] deals with DU-145 prostate.
Assay [4] concerns TK-10 renal.
For assay [5], the system named is NCI-H460 lung.
The test system of assay [6] is HCT-116 colon.
Assay [7] has as its system EKVX NSCLC.
The test system of assay [8] is SW-620 colon.
Assay [9] concerns UACC-257 melanoma.
Assay [10] has as its system SN12C renal.
Assay [11] deals with SF-539 CNS.
In assay [12] the test system is HS 578T breast.
For assay [13], the system named is OVCAR-3 ovarian.
Assay [14] concerns OVCAR-8 ovarian.
For assay [15], the system named is HOP-62 NSCLC.

In the case of `CCOC(=O)CCCNC(=O)CCCCC(=O)N(C)C`, the TGI in assay [1], in [2], in [3], in [4], in assay [5] and in [6] was > 100 µM each time. For the same compound, the TGI in [7], in [8], in [9], in assay [10], in [11] and in [12] was > 100 µM each time. In addition, the TGI in assay [13], in assay [14] and in [15] was > 100 µM each time.
Turning to `O=C(O)COCC(=O)N(CCOCCN(Cc1ccccc1)C(=O)COCC(=O)O)Cc1ccccc1`, the TGI in assay [1], in [2], in [3], in [4], in assay [5] and in assay [6] was > 100 µM in each case. Moreover, the TGI in [7], in assay [8], in assay [9], in assay [10], in [11] and in [12] was > 100 µM throughout. Also, the TGI in assay [13], in assay [14] and in assay [15] was > 100 µM throughout.
`COC(=O)c1cc(C)ccc1C1CN=NC12Cc1ccc(C)cc1C2=O` (stereo not given): the TGI in assay [1] was 31.9 µM; in assay [2], > 100 µM; in [3] it was > 100 µM; in assay [4], > 100 µM; in assay [5], > 100 µM; in [6], > 100 µM. The TGI in [7], in [8], in [9], in assay [10], in assay [11] and in [12] was > 100 µM in each case. Further, the TGI in assay [13], in assay [14] and in assay [15] was > 100 µM each time.
As to `COC1(C)CP(=O)(OC(C)C)CC(C)=C1Cl` (stereo not given), the TGI in assay [1] is 26.6 µM; in assay [2], 55.6 µM; in assay [3] it was 82.7 µM; in assay [4], 33.2 µM; in assay [5], 66.3 µM; in [6], 21 µM. Also, the TGI in assay [7] was 29.6 µM; in [8], 32.4 µM; in assay [9], 72.1 µM; in assay [10], 45.8 µM; in assay [11], 39.2 µM; in [12], > 100 µM. For the same compound, the figures for the TGI in assay [13], in [14] and in assay [15] were 24.2 µM, > 100 µM and 51.7 µM, respectively.
As for `Cc1cc2cc3c(cc2c(-c2ccc([N+](=O)[O-])cc2)n1)OCO3`, the TGI in [1], in assay [2], in [3], in assay [4], in [5] and in assay [6] was > 100 µM throughout. Besides, the TGI in assay [7] was > 100 µM; in assay [8], > 100 µM; in assay [9], > 100 µM; in [10], > 100 µM; in assay [11], 72.4 µM; in [12], > 100 µM. Further, the figures for the TGI in assay [13], in assay [14] and in [15] were > 100 µM, > 100 µM and 40 µM, respectively.
On to `CC(C)(C)C(=O)OCOP(=O)(OCOC(=O)C(C)(C)C)OCC1OC(n2ccc(=O)[nH]c2=O)C(N=[N+]=[N-])C1O` (stereo not given), for which the TGI in assay [1] was determined as 16.8 µM; in assay [2], 11.7 µM; in [3] it was 17.6 µM; in assay [4] it was 22.3 µM; in assay [5] it was 12.1 µM; in assay [6] it was 12 µM. In addition, the TGI in [7] turned out to be 20.6 µM; in assay [8], 18.2 µM; in assay [9], 18.1 µM; in assay [10] it was 22 µM; in [11], 8.88 µM; in [12], 7.64 µM. In addition, the TGI amounted to 3.25 µM in assay [13], 12.9 µM in [14] and 14.5 µM in [15].
Turning to `CCCC/C=C/C/C=C/CCCCCCCCC(=O)OCC1CCCN2CCCCC12` (stereo not given), the TGI was > 100 µM in [1]; 88.6 µM in assay [2]; > 100 µM in assay [3]; > 100 µM in [4]; > 100 µM in [5]; > 100 µM in assay [6]. The TGI in [7], in assay [8], in assay [9], in assay [10], in assay [11] and in [12] was > 100 µM throughout. Moreover, the TGI in assay [13], in [14] and in assay [15] was > 100 µM each time.
For the compound `O=c1[nH]nc(-c2ccccc2)n1-c1ccncc1`, the TGI in [1], in assay [2], in [3], in assay [4], in assay [5] and in [6] was > 100 µM in each case. Besides, the TGI in assay [7], in [8], in assay [9], in assay [10], in assay [11] and in assay [12] was > 100 µM in each case. Moreover, the TGI in [13], in assay [14] and in assay [15] was > 100 µM in each case.
Turning to `COC(=O)C1=C(O)C(C(=O)OC)[C@]2(O)[C@H](C(=O)OC)[C@H]1C[C@@H](c1ccc(OC)c(OC)c1)[C@H]2C(=O)OC` (stereo not given in full), the TGI in assay [1] was > 100 µM; in assay [2], > 100 µM; in assay [3], 93.8 µM; in assay [4], > 100 µM; in assay [5], 42.1 µM; in assay [6], > 100 µM. The TGI in assay [7] was > 100 µM; in assay [8], > 100 µM; in assay [9], > 100 µM; in [10], > 100 µM; in assay [11], 20.7 µM; in assay [12] it was > 100 µM. Further, the TGI in [13] is 62.5 µM; in assay [14], 31.1 µM; in assay [15] it was > 100 µM.
Regarding `CC(=O)c1sc2c(c1OC(=O)c1ccco1)c(=O)n(-c1ccccc1)c(=S)n2-c1ccccc1`, the TGI in [1] is 18.9 µM; in assay [2] it was 36.4 µM; in [3], 76.9 µM; in assay [4], 92.6 µM; in assay [5], > 100 µM; in assay [6], 41.1 µM. For the same compound, the TGI was 59.1 µM in assay [7]; > 100 µM in assay [8]; 88.7 µM in assay [9]; > 100 µM in assay [10]; 20.6 µM in assay [11]; 20 µM in assay [12]. Moreover, the TGI is > 100 µM in assay [13], > 100 µM in [14] and 66.8 µM in assay [15].
Take `CC1(C)C2CCC(CN)(C2)C1N` (stereo not given): the TGI in [1], in assay [2], in assay [3], in assay [4], in [5] and in assay [6] was > 100 µM throughout. Besides, the TGI in assay [7], in assay [8], in assay [9], in [10], in assay [11] and in assay [12] was > 100 µM each time. Further, the TGI in assay [13], in [14] and in [15] was > 100 µM each time.
Regarding `CCOC(=O)c1oc2cc3c(c4c2c1-c1ccccc1N4C)C=CC(C)(C)O3`, the TGI is 97.9 µM in [1]; > 84.4 µM in assay [2]; > 70 µM in [3]; 27.3 µM in assay [4]; > 100 µM in [5]; > 100 µM in [6]. The TGI in [7] was 46.6 µM; in assay [8], > 100 µM; in assay [9], > 100 µM; in assay [10], > 100 µM; in assay [11], 21.2 µM; in assay [12], 75.1 µM. The TGI in assay [13] is 45.3 µM; in assay [14], 27.1 µM; in assay [15] it was 24.7 µM.
Regarding `Cc1ccc(S(=O)(=O)c2ccsc2NC(=O)C(F)(F)F)cc1`, the TGI was 44.4 µM in assay [1]; > 100 µM in assay [2]; > 100 µM in [3]; > 100 µM in [4]; > 100 µM in [5]; 95.3 µM in assay [6]. In addition, the TGI in assay [7] was > 100 µM; in assay [8] it was > 100 µM; in assay [9] it was > 100 µM; in assay [10], 66.8 µM; in [11], > 100 µM; in assay [12], > 100 µM. The TGI in [13], in assay [14] and in [15] was > 100 µM in each case.
For the compound `COc1ccccc1N(CN1C(=O)CCC1C(=O)O)C(C)=O` (stereo not given), the TGI in assay [1], in assay [2], in assay [3], in assay [4], in assay [5] and in assay [6] was > 100 µM in each case. For the same compound, the TGI in assay [7], in [8], in [9], in assay [10], in [11] and in assay [12] was > 100 µM in each case. In addition, the TGI in [13], in [14] and in assay [15] was > 100 µM each time.
For `c1ccc(-c2cn3c(nc4ccccc43)c(-c3ccccc3)n2)cc1`, the TGI is > 100 µM in assay [1]; > 71.3 µM in assay [2]; > 100 µM in assay [3]; > 93.4 µM in assay [4]; > 100 µM in [5]; > 100 µM in assay [6]. The TGI in assay [7] is > 100 µM; in assay [8], > 100 µM; in assay [9], > 100 µM; in [10], > 100 µM; in assay [11], > 100 µM; in assay [12] it was > 94.2 µM. Moreover, the values for the TGI in assay [13], in [14] and in assay [15] were > 100 µM, 40.3 µM and 27.9 µM, respectively.
As to `COc1cc(/C=C2/SC(c3ccccc3)N(c3ccccc3Cl)C2=O)cc(OC)c1OC` (stereo not given), the TGI is 33.6 µM in assay [1]; > 100 µM in assay [2]; > 100 µM in assay [3]; > 100 µM in assay [4]; > 100 µM in assay [5]; 67.7 µM in assay [6]. The TGI was > 100 µM in assay [7]; > 100 µM in assay [8]; > 100 µM in [9]; 46.6 µM in [10]; 36.6 µM in assay [11]; > 100 µM in [12]. For the same compound, the TGI in assay [13], in assay [14] and in [15] was > 100 µM each time.
Regarding `COc1ccc2c(c1)-c1nc(=S)n(CCCN(C)C)c3ccc([N+](=O)[O-])c(c13)N2`, the TGI came to 10.1 µM in assay [1]; 40.8 µM in assay [2]; 17.9 µM in assay [3]; 17.1 µM in [4]; 10.3 µM in [5]; 2.93 µM in [6]. The TGI came to 14.5 µM in assay [7]; 7.18 µM in assay [8]; 3.6 µM in [9]; 10.3 µM in assay [10]; 6.08 µM in assay [11]; 5.6 µM in assay [12]. Further, the TGI in assay [13] came to 18.5 µM; in assay [14], 6.5 µM; in assay [15] it was 2.46 µM.
Turning to `COC(=O)C1=C(O)C(C(=O)OC)[C@]2(O)[C@H](C(=O)OC)[C@H]1C[C@@H](c1ccc(Cl)cc1)[C@H]2C(=O)OC` (stereo not given in full), the TGI in assay [1] was 20.5 µM; in assay [2], > 100 µM; in assay [3], 30.4 µM; in assay [4] it was 33.5 µM; in [5] it was 49.4 µM; in assay [6], 17.3 µM. In addition, the TGI in assay [7] is 30.6 µM; in [8], > 100 µM; in [9], 26.5 µM; in assay [10], 79.6 µM; in assay [11] it was 20.9 µM; in assay [12] it was 30.2 µM. Moreover, the TGI in assay [13] is 13.4 µM; in assay [14], > 100 µM; in [15], 24 µM.
